Results as given in US8802597B2, “Herbicidal pyrimidines” (E I du Pont de Nemours and Company, priority 2003, dated 2014).
Like-named read-outs stand apart in the source and are kept apart here.

Experiments:
Format in all cases: in vivo
[1] = test system: yellow nutsedge (Cyperus esculentus); assay: Test C pre/postemergence; conditions: Cyperus; for pest or weed control at 31 g/ha: 31 g ai/ha; for pest or weed control at 62 g/ha: 62 g ai/ha; for pest or weed control at 125 g/ha: 125 g ai/ha; for pest or weed control at 250 g/ha: 250 g ai/ha; for pest or weed control at 500 g/ha: 500 g ai/ha
Description: (§1) Seeds or nutlets of plant species selected from bermudagrass (Cynodon dactylon), Surinam grass (Brachiaria decumbens), cocklebur (Xanthium strumarium), corn (Zea mays), crabgrass (Digitaria sanguinalis), woolly cupgrass (Eriochloa villosa), giant foxtail (Setaria faberii), goosegrass (Eleusine indica), johnsongrass (Sorghum halepense), kochia (Kochia scoparia), lambsquarters (Chenopodium album), morningglory (Ipomoea coccinea), eastern black nightshade (Solanum ptycanthum), yellow nutsedge (Cyperus esculentus), pigweed (Amaranthus retroflexus), common ragweed (Ambrosia elatior), soybean (Glycine max), common (oilseed) sunflower (Helianthus annuus), and velvetleaf (Abutilon theophrasti) were planted and treated preemergence with test chemicals formulated in a non-phytotoxic solvent mixture which included a surfactant.
(§2) At the same time, plants selected from these crop and weed species and also winter barley (Hordeum vulgare), blackgrass (Alopecurus myosuroides), canarygrass (Phalaris minor), chickweed (Stellaria media), downy brome (Bromus tectorum), green foxtail (Setaria viridis), Italian ryegrass (Lolium multiflorum), wheat (Triticum aestivum), wild oat (Avena fatua) and windgrass (Apera spica-venti) were treated with postemergence applications of some of the test chemicals formulated in the same manner. Plants ranged in height from 2 to 18 cm (1- to 4-leaf stage) for postemergence treatments. Plant species in the flooded paddy test consisted of rice (Oryza sativa), umbrella sedge (Cyperus difformis), duck salad (Heteranthera limosa) and barnyardgrass (Echinochloa crus-galli) grown to the 2-leaf stage for testing. Treated plants and controls were maintained in a greenhouse for 12 to 14 days, after which time all species were compared to controls and visually evaluated. Plant response ratings, summarized in Table C, are based on a scale of 0 to 100 where 0 is no effect and 100 is complete control. A dash (-) response means no test result.

[2] = test system: giant foxtail (Setaria faberii); assay: Test C pre/postemergence; conditions: Setaria faberi; for pest or weed control at 125 g/ha: 125 g ai/ha; for pest or weed control at 31 g/ha: 31 g ai/ha; for pest or weed control at 62 g/ha: 62 g ai/ha; for pest or weed control at 250 g/ha: 250 g ai/ha; for pest or weed control at 500 g/ha: 500 g ai/ha
Description: as §1, §2

[3] = test system: crabgrass (Digitaria sanguinalis); assay: Test C pre/postemergence; conditions: Digitaria sanguinalis; for pest or weed control at 31 g/ha: 31 g ai/ha; for pest or weed control at 62 g/ha: 62 g ai/ha; for pest or weed control at 125 g/ha: 125 g ai/ha; for pest or weed control at 250 g/ha: 250 g ai/ha; for pest or weed control at 500 g/ha: 500 g ai/ha
Description: as §1, §2

[4] = test system: Surinam grass (Brachiaria decumbens); assay: Test C pre/postemergence; conditions: Urochloa decumbens; for pest or weed control at 125 g/ha: 125 g ai/ha; for pest or weed control at 31 g/ha: 31 g ai/ha; for pest or weed control at 62 g/ha: 62 g ai/ha; for pest or weed control at 250 g/ha: 250 g ai/ha; for pest or weed control at 500 g/ha: 500 g ai/ha
Description: as §1, §2

[5] = test system: chickweed (Stellaria media); assay: Test C postemergence; conditions: Stellaria media, post-emergence; for pest or weed control at 31 g/ha: 31 g ai/ha, read-out: Plant response rating (scale of 0 to 100), Chickweed; for pest or weed control at 62 g/ha: 62 g ai/ha, scale 0 to 100 (0 no effect, 100 complete control), read-out: Chickweed plant response rating; for pest or weed control at 125 g/ha: 125 g ai/ha; for pest or weed control at 250 g/ha: 250 g ai/ha
Description: as §1, §2

[6] = post-emergence, Postemergence, read-out: Plant response rating (scale of 0 to 100), Nutsedge, Yellow
[7] = post-emergence, Postemergence, scale 0 to 100 (0 no effect, 100 complete control), read-out: Nutsedge, Yellow plant response rating
[8] = post-emergence, Postemergence, scale 0 to 100, read-out: Plant response rating, Nutsedge, Yellow
[9] = pre-emergence, Preemergence, scale 0 to 100, 0 no effect, 100 complete control, read-out: Plant response rating, Nutsedge, Yellow
[10] = pre-emergence, Preemergence, scale 0 to 100, read-out: Plant response rating, Nutsedge, Yellow
[11] = post-emergence, Postemergence, scale 0 to 100 (0 no effect, 100 complete control), read-out: Foxtail, Giant plant response rating
[12] = post-emergence, Postemergence, read-out: Plant response rating (scale of 0 to 100), Foxtail, Giant
[13] = post-emergence, Postemergence, scale 0 to 100, read-out: Plant response rating, Foxtail, Giant
[14] = pre-emergence, Preemergence, scale 0 to 100, 0 no effect, 100 complete control, read-out: Plant response rating, Foxtail, Giant
[15] = pre-emergence, Preemergence, scale 0 to 100, read-out: Plant response rating, Foxtail, Giant
[16] = post-emergence, Postemergence, read-out: Plant response rating (scale of 0 to 100), Crabgrass
[17] = post-emergence, Postemergence, scale 0 to 100 (0 no effect, 100 complete control), read-out: Crabgrass plant response rating
[18] = post-emergence, Postemergence, scale 0 to 100, read-out: Plant response rating, Crabgrass
[19] = pre-emergence, Preemergence, scale 0 to 100, 0 no effect, 100 complete control, read-out: Plant response rating, Crabgrass
[20] = pre-emergence, Preemergence, scale 0 to 100, read-out: Plant response rating, Crabgrass
[21] = post-emergence, Postemergence, scale 0 to 100 (0 no effect, 100 complete control), read-out: Surinam Grass plant response rating
[22] = post-emergence, Postemergence, read-out: Plant response rating (scale of 0 to 100), Surinam Grass
[23] = post-emergence, Postemergence, scale 0 to 100, read-out: Plant response rating, Surinam Grass
[24] = pre-emergence, Preemergence, scale 0 to 100, 0 no effect, 100 complete control, read-out: Plant response rating, Surinam Grass
[25] = pre-emergence, Preemergence, scale 0 to 100, read-out: Plant response rating, Surinam Grass
[26] = scale 0 to 100, read-out: Plant response rating, Chickweed

Row | Structure (SMILES) | pest or weed control at 62 g/ha [1, 7] | pest or weed control at 125 g/ha [1, 7] | pest or weed control at 250 g/ha [1, 8] | pest or weed control at 62 g/ha [1, 9] | pest or weed control at 125 g/ha [1, 10] | pest or weed control at 250 g/ha [1, 10] | pest or weed control at 125 g/ha [2, 11] | pest or weed control at 62 g/ha [2, 11] | pest or weed control at 250 g/ha [2, 13] | pest or weed control at 62 g/ha [2, 14] | pest or weed control at 125 g/ha [2, 15] | pest or weed control at 250 g/ha [2, 15] | pest or weed control at 62 g/ha [3, 17] | pest or weed control at 125 g/ha [3, 17] | pest or weed control at 250 g/ha [3, 18] | pest or weed control at 62 g/ha [3, 19] | pest or weed control at 125 g/ha [3, 20] | pest or weed control at 250 g/ha [3, 20] | pest or weed control at 125 g/ha [4, 21] | pest or weed control at 62 g/ha [4, 21] | other results
1 | COC(=O)c1nc(C2CC2)nc(N)c1Br [Compound 2, methyl 6-amino-5-bromo-2-cyclopropyl-4-pyrimidinecarboxylate] | 0% | 0% | 20% | 0% | 0% | 0% | 65% | 35% | 70% | 0% | 0% | 30% | 55% | 60% | 70% | 0% | 0% | 50% | 65% | 55% | pest or weed control at 31 g/ha [1, 6]: 0%; pest or weed control at 31 g/ha [1, 9]: 0%; pest or weed control at 31 g/ha [2, 12]: 0%; pest or weed control at 31 g/ha [2, 14]: 0%; pest or weed control at 31 g/ha [3, 16]: 40%; pest or weed control at 31 g/ha [3, 19]: 0%; pest or weed control at 31 g/ha [4, 22]: 0%; pest or weed control at 250 g/ha [4, 23]: 70%; pest or weed control at 31 g/ha [4, 24]: 0%; pest or weed control at 62 g/ha [4, 24]: 0%; pest or weed control at 125 g/ha [4, 25]: 0%; pest or weed control at 250 g/ha [4, 25]: 0%; pest or weed control at 31 g/ha [5]: 60%; pest or weed control at 62 g/ha [5]: 65%; pest or weed control at 125 g/ha [5, 26]: 75%; pest or weed control at 250 g/ha [5, 26]: 95%
2 | COC(=O)c1nc(C(C)C)nc(N)c1Br [Compound 3] | 0% | 0% | 0% | 0% | 0% | 0% | 0% | 0% | 0% | 0% | 0% | 0% | 0% | 0% | 0% | 0% | 0% | 0% | 0% | 0% | pest or weed control at 31 g/ha [1, 6]: 0%; pest or weed control at 31 g/ha [1, 9]: 0%; pest or weed control at 31 g/ha [2, 12]: 0%; pest or weed control at 31 g/ha [2, 14]: 0%; pest or weed control at 31 g/ha [3, 16]: 0%; pest or weed control at 31 g/ha [3, 19]: 0%; pest or weed control at 31 g/ha [4, 22]: 0%; pest or weed control at 250 g/ha [4, 23]: 0%; pest or weed control at 31 g/ha [4, 24]: 0%; pest or weed control at 62 g/ha [4, 24]: 0%; pest or weed control at 125 g/ha [4, 25]: 0%; pest or weed control at 250 g/ha [4, 25]: 0%; pest or weed control at 31 g/ha [5]: 0%; pest or weed control at 62 g/ha [5]: 0%; pest or weed control at 125 g/ha [5, 26]: 0%; pest or weed control at 250 g/ha [5, 26]: 40%
3 | CCOC(=O)c1nc(C2CC2)nc(N)c1Cl [Compound 4, ethyl 6-amino-5-chloro-2-cyclopropyl-4-pyrimidinecarboxylate] | 0% | 0% | 0% | 0% | 0% | 15% | 75% | 60% | 85% | 0% | 40% | 75% | 70% | 75% | 75% | 40% | 65% | 85% | 75% | 60% | pest or weed control at 500 g/ha [1, 8]: 0%; pest or weed control at 500 g/ha [1, 10]: 80%; pest or weed control at 500 g/ha [2, 13]: 95%; pest or weed control at 500 g/ha [2, 15]: 85%; pest or weed control at 500 g/ha [3, 18]: 80%; pest or weed control at 500 g/ha [3, 20]: 95%; pest or weed control at 500 g/ha [4, 23]: 95%; pest or weed control at 250 g/ha [4, 23]: 75%; pest or weed control at 62 g/ha [4, 24]: 0%; pest or weed control at 125 g/ha [4, 25]: 65%; pest or weed control at 250 g/ha [4, 25]: 85%; pest or weed control at 500 g/ha [4, 25]: 100%; pest or weed control at 62 g/ha [5]: 30%; pest or weed control at 125 g/ha [5, 26]: 85%; pest or weed control at 250 g/ha [5, 26]: 100%; pest or weed control at 500 g/ha ([5]; 500 g ai/ha, scale 0 to 100, read-out: Plant response rating, Chickweed): 100%
